Data published in paper PMC5050390, “Transport of Corilagin, Gallic Acid, and Ellagic Acid from Fructus Phyllanthi Tannin Fraction in Caco-2 Cell Monolayers” (Evidence-based Complementary and Alternative Medicine : eCAM, 2016).

Columns and labels:
[1] = design: method as in earlier work; details: rats, oral PTF 6 g/kg; cited from earlier work
Caco-2 cell monolayers = assay: Transport of PTF constituents across Caco-2 cell monolayers (LC-MS quantification); assay type: in vitro ADME, human; design: efflux ratio at 180 min / Papp A→B at 180 min: dose or concentration left out as unconfirmed; details: for change of transport with tight junction modulators SDS and PLL: SDS and PLL 50 μg/mL; for PDR (ratio of P app BL→AP to P app AP→BL): compound in PTF 1.00 mg/mL; for change of transport (P app) in presence of indomethacin: indomethacin 10 μM (MRPs/OATP inhibitor); for change of transport (P app) in presence of indomethacin / change of transport (P app) in presence of phloridzin / change of transport (P app) in presence of verapamil: PTF 1.00 mg/mL, 120 min; for change of transport (P app) in presence of phloridzin: phloridzin 50 μM (SGLT1 inhibitor); for change of transport (P app) in presence of verapamil: verapamil 100 μM (P-gp inhibitor)
Method: (§1) When cells were cultured to 80% confluence, they were seeded in 12-well Transwell-Clear plates at a density of 1.2 × 10^5 cells/insert. Cells were cultured for 21 days to reach confluence and functional differentiation. Complete medium was replaced every 2 days for the first 2 weeks and daily renewed for the last 7 days. All cells were between passages 35 and 55. […] After 21-day culture, the complete medium was removed and the monolayer was washed three times and balanced with HBSS (previously warmed to 37°C) for 30 min. […] […] All samples were dried with organomation. Before analyzing, the dry samples were dissolved in methanol/water/acetic acid (200 : 200 : 1, v/v/v) and the insoluble substance was eliminated with centrifugation 12000 rpm for 5 min. Protein inhibitors including verapamil (100 μM), indomethacin (10 μM), and phloridzin (50 μM) were employed to investigate the role of different transporters. Epithelial tight junction modulators such as SDS (50 μg/mL) and PLL (50 μg/mL) were used to evaluate the role of paracellular permeability. Hydrophilic marker sodium fluorescein (0.6 mg/mL) was used for the evaluation of the integrity of the cell monolayer. […] The column temperature was 20°C and the injection volume was 20 μL. MS/MS analysis was acquired using an Agilent 6410 triple quadrupole mass spectrometer (Agilent Technologies, CA, USA) equipped with an electrospray ionisation (ESI) in the negative mode. Other analytical conditions included the drying gas temperature of 300°C, the drying gas flow of 11 L/min, the nebulizer pressure of 35 psi, and the capillary voltage of 4 kV. To get the highest abundance, the fragmentor voltage and collision energy were optimized. Data acquisition and processing were accepted by Agilent Mass Hunter workstation software version B.05.00 using multiple reaction monitoring (MRM). The quantification was performed using external standard method. […] Here, dC/dt is the change in concentration on the receiver side over time; V is the volume of the solution in the receiver chamber; A is the surface area of the cell monolayer; C 0 is the initial concentration in the donor chamber. PDR is the ratio of P app(BL→AP) to P app(AP→BL).

[2] = as above; assay type: in vitro ADME, human; design: efflux ratio at 180 min / Papp A→B at 180 min: dose or concentration left out as unconfirmed; details: human, Caco-2, 180 min; for efflux ratio at 180 min: read-out: PDR (ratio of P app BL→AP to P app AP→BL)
Method: as §1

Caco-2 cell monolayer = test system: Caco-2 cell monolayer; design: method as in PMID 14646189; details: pure compound; cited from earlier work
[3] = compound in PTF 1.00 mg/mL, mean ± SEM (n = 3)

Row | SMILES | peak concentration (C max) [1] | change of transport with tight junction modulators SDS and PLL (Caco-2 cell monolayers) | PDR (ratio of P app BL→AP to P app AP→BL) (Caco-2 cell monolayers; 180 min) | secretion transport P app (BL→AP) (Caco-2 cell monolayers; human, Caco-2, 180 min) | change of transport (P app) in presence of indomethacin (Caco-2 cell monolayers) | change of transport (P app) in presence of phloridzin (Caco-2 cell monolayers) | change of transport (P app) in presence of verapamil (Caco-2 cell monolayers) | efflux ratio at 180 min [2] | Papp A→B at 180 min, 1 mg/mL [2, 3] [×10⁻⁶ cm/s] | Papp B→A at 180 min [2, 3] [×10⁻⁶ cm/s] | absorption transport P app (AP→BL) (Caco-2 cell monolayers; compound in PTF) | secretion transport P app (BL→AP) (Caco-2 cell monolayers; compound in PTF) | Papp A→B at 180 min ([2]; mean ± SEM (n = 3)) [×10⁻⁶ cm/s] | P app of GA across Caco-2 cell monolayer (Caco-2 cell monolayer) | P app of marker across the monolayers (Caco-2 cell monolayers; sodium fluorescein 0.6 mg/mL, monolayer integrity check)
1 | O=C(O[C@@H]1O[C@@H]2COC(=O)c3cc(O)c(O)c(O)c3-c3c(cc(O)c(O)c3O)C(=O)O[C@H]([C@H]1O)[C@@H]2O)c1cc(O)c(O)c(O)c1 [Corilagin] | lower than 10.47 μg/mL | greatly improved | more than 1.5 | ~10^−6 cm/s | significantly increased | no considerable change | significantly increased | 12.5 | 0.174 ± 0.019 | 2.18 ± 0.228 |  |  |  |  | 
2 | O=c1oc2c(O)c(O)cc3c(=O)oc4c(O)c(O)cc1c4c23 [Ellagic acid] | lower than 10.47 μg/mL | greatly improved | less than 1.5 |  | strongly decreased | strongly decreased | no substantial difference | 1.31 |  | 0.456 ± 0.01 | ~10^−7 cm/s | ~10^−7 cm/s | 0.347 ± 0.018 |  | 
3 | O=C(O)c1cc(O)c(O)c(O)c1 [Gallic acid] | lower than 10.47 μg/mL | greatly improved | more than 1.5 |  | significantly increased | no considerable change | significantly increased | 4.17 |  | 0.1 ± 0.009 |  | ~10^−7 cm/s | 0.024 ± 0.004 | about 0.20 × 10^−6 cm/s | 
4 | O=C([O-])c1ccccc1-c1c2ccc(=O)cc-2oc2cc([O-])ccc12.[Na+].[Na+] [sodium fluorescein, reference compound] |  |  |  |  |  |  |  |  |  |  |  |  |  |  | 3.16 ± 0.25 × 10^−7 cm/s
